What was measured:
[1] = test system: various cell lines used in Examples; assay: Toxicity and viability check on the cell lines used in Examples; type: cell-based; conditions: sesaminol solution (3.0 mg/ml in DMSO)
Method: The highly concentrated sesaminol solution was dissolved in dimethyl sulphoxide (DMSO) to prepare a sesaminol solution (3.0 mg/ml) to be used in Examples.

[2] = test system: human normal skin-derived keratinocyte HaCaT cells; assay: Scratch (wound healing) assay of keratinocyte migration; type: cell-based; conditions: 24 hours, control = 100
Method: Cells of human normal skin-derived keratinocyte HaCaT cells were inoculated at a density of 5.0×10^5 cells/dish in a plastic dish having a diameter of 35 mm with a mark on the bottom and cultured until they reached confluence in a 5% CO2 incubator at 37° C. The culture medium used was Dulbecco's modified Eagle's medium (DMEM: Nissui Pharmaceutical Co., Ltd.) containing 10% fetal bovine serum (FBS: Nichirei Biosciences, Inc.), penicillin (50 units/ml, Meiji Co., Ltd.) and streptomycin ([…], Meiji Co., Ltd.). The medium was replaced every two days.
After culturing the cells until they reached confluence, cells in the dish were scraped with a chip and a linear wound pattern was formed therewith. Immediately thereafter, the wound pattern was analysed under an inverted microscope (OLYMPUS IX-70: Olympus Corporation) and photographed. […] The wound pattern was then analysed with OLYMPUS IX-70 and photographed. […]
Based on the obtained photographic images, the width of wound patterns in the samples was measured. […] Based on the measurement results, the repair rate in the region of the wound by sesaminol was calculated. The repair rates for the samples calculated are as follows with the rate for the control being 100.

[3] = test system: type I collagen in CCD-10595K cells; assay: Collagen production by immunohistochemistry (anti-type I collagen) in fibroblasts; type: cell-based, human; conditions: sesaminol 15 or 30 μg/ml, 24 hours
Method: Cells of human normal skin-derived fibroblast CCD-10595K strain (purchased from DS Pharma Biomedical Co., Ltd.) were inoculated at a density of 3.0×10^4 cells/ml in a plastic dish having a diameter of 35 mm and cultured in a 5% CO2 incubator at 37° C. The medium used was the same medium as in Example 1. After 1 or 2 days, the medium was replaced with the medium containing the sesaminol solution so as to contain sesaminol at a final concentration of 15 or 30 μg/ml and the cells were incubated for 24 hours in a 5% CO2 incubator at 37° C. As a control, incubation was carried out using the medium without sesaminol solution.
After the incubation, cells were washed three times with PBS. Cells were then fixed in 4% paraformaldehyde and stored overnight at 4° C. The fixed cells were treated with 0.1% Triton®-X100 diluted in PBS for 5 minutes and washed with PBS for 5 minutes. The treated cells were blocked in 3% H2O2 and washed with PBS for 5 minutes. The cells were further blocked in 10% normal goat serum and washed with PBS for 5 minutes. A rabbit anti-type I collagen antibody (LSL) diluted 200-fold in PBS was added to the cells on a slide glass which were then incubated for 1 hour and washed with PBS for 5 minutes. […] The prepared slide was analysed on OLYMPUS IX-70 and images of stained cells were obtained.

[4] = test system: type I collagen in CCD-10595K cells; assay: Collagen production by western blot analysis in fibroblasts; type: cell-based, human; conditions: sesaminol 15 or 30 μg/ml, 24 hours
Method: (§1) Cells of human normal skin-derived fibroblast CCD-10595K cells (purchased from DS Pharma Biomedical Co., Ltd.) were inoculated in a plastic dish having a diameter of 35 mm and cultured until they reached confluence in a 5% CO2 incubator at 37° C. Thereafter, the medium was replaced with the medium containing the sesaminol solution so as to contain sesaminol at a final concentration of 15 or 30 μg/ml and the cells were incubated for 24 hours in a 5% CO2 incubator at 37° C. The medium used was the same medium as in Example 1. The medium was replaced every two days until the cells reached confluence. As a control, incubation was carried out using the medium without sesaminol solution.
(§2) After the incubation, cells were washed twice with PBS and collected into a 1.5-ml tube using a cell scraper. […] An aliquot of the collected supernatant was subjected to protein quantification using Serva Blue G (Serva Electrophoresis GmbH) based on the absorbance at 595 nm in order to calculate the amount of sample applied to electrophoresis.
(§3) Equal volumes of the supernatant containing cell lysate and a sample buffer were mixed and heated at 90° C. for 5 minutes to prepare a sample for electrophoresis. […] The ratio of the band intensity of type I collagen or elastin relative to the band intensity of β-actin was calculated for the samples.

[5] = test system: elastin in CCD-10595K cells; assay: Elastin production by western blot analysis in fibroblasts; type: cell-based, human; conditions: sesaminol 15 or 30 μg/ml, 24 hours
Method: as §1, §2, §3

SMILES: Oc1cc2c(cc1C1OCC3C(c4ccc5c(c4)OCO5)OCC13)OCO2 (stereo not shown) [sesaminol]
- effect on cell viability [1]: did not affect viability
- toxicity to cell lines [1]: not toxic
- repair rate in the region of the wound (control being 100) ([2]; sesaminol 15 μg/ml): 121.7±25.6
- repair rate in the region of the wound (control being 100) ([2]; sesaminol 30 μg/ml): 139.1±20.6
- type I collagen staining intensity vs control (FIG. 2) [3]: stained more intensely than the control
- expression level of collagen (band intensity ratio to β-actin, control = 1; FIG. 3) [4]: increased
- expression level of elastin (band intensity ratio to β-actin, control = 1; FIG. 4) [5]: increased

Source: patent publication US9629823B2, “Composition for promoting collagen production, for promoting elastin production and/or for promoting keratinocyte migration and usage therefor” (PUBLIC UNIVERSITY CORPORATION OSAKA CITY UNIVERSITY, priority 2013, dated 2017)
